From patent US20070110743A1, “Methods of protein production using anti-senescence compounds” (Wyeth, priority 2005, published 2007)

Key:
[1] = addition of the chemical agent to the culture; cited from earlier work
MYO-29 cell line [2] = assay: Carnosine addition to 1 L fed-batch bioreactor cell culture (Example 2); assay type: cell-based; conditions: 20 mM carnosine added day 4
Protocol: Five bioreactors were inoculated with 0.9×10^6 cells/ml with a 1 L working volume of a MYO-29 cell line in a serum free inoculation medium. All the bioreactors were fed 5% (v/v) of a feed medium on days 3, 5, 7, and 12 of a 14-day run. A day 10 feed of 5% (v/v) of the feed medium was added to two of the control bioreactors and one containing carnosine. The conditions of the bioreactors were held at a temperature of 37° C., a pH of 7.00, and a dissolved oxygen level at 30% air saturation.
The bioreactors were harvested on day 14 of the production run. Samples were taken throughout the run to monitor the progress of the cell culture medium. The controls performed as expected.

MYO-29 cell line [3] = assay: Different concentrations of carnosine in 1 L bioreactor cell culture (Example 3); assay type: cell-based
Protocol: Four bioreactors were inoculated with 0.4×10^6 cells/ml with a 1 L working volume of a MYO-29 cell line in a serum free inoculation medium. All the bioreactors were all fed 5% (v/v) of a feed medium on day 7 of the 14-day run. The conditions of the bioreactor were held at a temperature of 37° C., a pH of 7.00, and a dissolved oxygen level at 30% air saturation.
All cells were cultured for four days at which point the temperature was shifted in all of the bioreactors to 31° C. […] All bioreactors were harvested on day 12 of the production run. Samples were taken throughout the run to monitor the progress of the cell culture medium. The controls performed generally as expected, except one control had slightly lower daily viabilities than previously seen.

[4] = test system: human diploid fibroblasts and human fetal lung (primary cell lines); conditions: concentration of 20 mM in culture media; cited from earlier work
[5] = test system: human or rodent transformed and neoplastic cells; conditions: cited from earlier work

Row | Compound | cell growth and viable cell number [1] | cumulative specific cellular productivity (MYO-29 cell line [2]; 14-day run) | daily titer at the time of harvest (MYO-29 cell line [2]; harvest day 14) | daily cell viability upon being harvested (MYO-29 cell line [2]; harvest day 14, compared to bioreactors without carnosine) | daily titer (MYO-29 cell line [3]; 20 mM or 40 mM carnosine added day 4, compared with one of the controls) | daily cell viability upon being harvested (MYO-29 cell line [3]; 20 mM or 40 mM carnosine added day 4, harvest day 12, compared to two control bioreactors) | daily viable cell density (MYO-29 cell line [3]; 20 mM or 40 mM carnosine added day 4, versus controls) | cumulative specific cellular productivity (MYO-29 cell line [3]; 40 mM carnosine added day 4) | lifespan of cells [4] | cytotoxic effects ([5]; dialyzed fetal calf serum with low molecular weight compounds removed) | cytotoxicity ([5]; in Minimal Essential Medium (MEM), lower glucose levels)
1 | CCCC(=O)[O-].[Na+] [sodium butyrate] | cell growth ceases and the viable cell number decreases | – | – | – | – | – | – | – | – | – | –
2 | NCCC(=O)N[C@@H](Cc1cnc[nH]1)C(=O)O [carnosine] | – | better | higher titer | higher | similar | higher viability | fairly similar with the exception of the bioreactor with 4 mM of carnosine | higher | extend the lifespan | increased the cytotoxic effects | cytotoxic
